{"source": "patent US4503147A", "about": "(priority 1981, dated 1985)", "note": "Structures can show the parent of a compound that is named as a salt."}
{"tested_on": "monomethylamine-oxidizing enzyme", "assay": "Substrate specificity and Km of the purified monomethylamine-oxidizing enzyme", "assay_type": "biochemical, Bacillus sp. N - 104 (FERM BP-59)", "conditions": "pH 9.0", "protocol": "(§1) […] To 1.0 ml of this substrate solution, is added 0.1 ml of an enzyme solution diluted with the same buffer solution and the mixture is subjected to reaction for 10 min. at 30° C. By adding 1 ml of 5N KOH solution, the enzymatic reaction is stopped. By this enzymatic reaction, monomethylamine is oxidatively decomposed to produce formaldehyde, ammonia and hydrogen peroxide. Then, to the reaction mixture is added 1 ml of 0.5 N hydrochloric acid solution containing 0.5% 4-amino-3-hydrazino-5-mercapto-1,2,4-triazole (to be abbreviated as AHMT hereinafter) and the mixture is subjected to reaction for 15 min. at 30° C. To the reaction mixture is added 1 ml of 0.2 N potassium hydroxide solution containing 0.75% KIO4 and the mixture is thoroughly stirred to develop a color. The colored solution is poured into a transparent cell and its absorption at 550 nm is measured to quantitatively determine the above produced formaldehyde.", "units": {"Km": "µM"}}
{"smiles": "CN", "note": "[Monomethylamine]", "Km": 62}
{"tested_on": "monomethylamine-oxidizing enzyme", "assay": "Substrate specificity and Km of the purified monomethylamine-oxidizing enzyme", "assay_type": "biochemical, Bacillus sp. N - 104 (FERM BP-59)", "conditions": "substrate concentration 10 mM; activity for monomethylamine taken as 100", "protocol": "as §1", "units": {"Relative activity": "%"}}
{"smiles": "N=C(N)NCCCCN", "note": "[Agmatine]", "Relative activity": 1}
{"smiles": "NCc1ccccc1", "note": "[Benzylamine]", "Relative activity": 1}
{"smiles": "NCN", "note": "[Diaminomethane]", "Relative activity": 16}
{"smiles": "CNC", "note": "[Dimethylamine]", "Relative activity": 0}
{"smiles": "NCCO", "note": "[Ethanolamine]", "Relative activity": 1}
{"smiles": "CCN", "note": "[Ethylamine]", "Relative activity": 90}
{"smiles": "NCCN", "note": "[Ethylenediamine]", "Relative activity": 0}
{"smiles": "NCCc1c[nH]cn1", "note": "[Histamine]", "Relative activity": 1}
{"smiles": "NO", "note": "[Hydroxylamine]", "Relative activity": 0}
{"smiles": "CN", "note": "[Monomethylamine]", "Relative activity": 100}
{"smiles": "NCCCCN", "note": "[Putrescine]", "Relative activity": 0}
{"smiles": "CN(C)C", "note": "[Trimethylamine]", "Relative activity": 0}
{"smiles": "NCCc1ccc(O)cc1", "note": "[Tyramine]", "Relative activity": 0}
{"smiles": "CC(C)CN", "note": "[i-Butylamine]", "Relative activity": 2}
{"smiles": "CC(C)N", "note": "[i-Propylamine]", "Relative activity": 0}
{"smiles": "CCCCCN", "note": "[n-Amylamine]", "Relative activity": 19}
{"smiles": "CCCCN", "note": "[n-Butylamine]", "Relative activity": 18}
{"smiles": "CCCCCCN", "note": "[n-Hexylamine]", "Relative activity": 10}
{"smiles": "CCCN", "note": "[n-Propylamine]", "Relative activity": 60}
{"tested_on": "monomethylamine-oxidizing enzyme", "assay": "not given", "assay_type": "biochemical, Bacillus sp. N - 104 (FERM BP-59)", "conditions": "1 mM inhibitor, 10 min treatment at 30° C., pH 9; activity without inhibitor taken as 100", "protocol": "(§2) Monomethylamine hydrochloride as substrate is dissolved into 0.1 M KH2 PO4 -Na2 B4 O7 buffer solution (pH 7) and the solution is ordinally adjusted to 1 mM concentration of substrate. To 1.0 ml of this substrate solution, is added 0.1 ml of an enzyme solution diluted with the same buffer solution and the mixture is subjected to reaction for 10 min. at 30° C. By adding 1 ml of 5N KOH solution, the enzymatic reaction is stopped. By this enzymatic reaction, monomethylamine is oxidatively decomposed to produce formaldehyde, ammonia and hydrogen peroxide. Then, to the reaction mixture is added 1 ml of 0.5 N hydrochloric acid solution containing 0.5% 4-amino-3-hydrazino-5-mercapto-1,2,4-triazole (to be abbreviated as AHMT hereinafter) and the mixture is subjected to reaction for 15 min. at 30° C. To the reaction mixture is added 1 ml of 0.2 N potassium hydroxide solution containing 0.75% KIO4 and the mixture is thoroughly stirred to develop a color. The colored solution is poured into a transparent cell and its absorption at 550 nm is measured to quantitatively determine the above produced formaldehyde.", "units": {"Residual activity": "%"}}
{"smiles": "[Cl][Hg][Cl]", "note": "[HgCl2]", "Residual activity": 0}
{"smiles": "NC(=O)CI", "note": "[iodoacetamide]", "Residual activity": 2.2}
{"smiles": "O=C(O)c1cc[c]([Hg][Cl])cc1", "note": "[p-chloromercuribenzoic acid]", "Residual activity": 0.7}
{"smiles": "NNC(N)=O", "note": "[semicarbazide hydrochloride]", "Residual activity": 0}
{"tested_on": "monomethylamine-oxidizing enzyme", "assay": "not given", "assay_type": "biochemical, Bacillus sp. N - 104 (FERM BP-59)", "conditions": "5 mM inhibitor, 10 min treatment at 30° C., pH 9; activity without inhibitor taken as 100", "protocol": "as §2", "units": {"Residual activity": "%"}}
{"smiles": "c1cnc2c(c1)ccc1cccnc12", "note": "[O-phenanthroline]", "Residual activity": 70.9}
{"smiles": "CCN(CC)C(=S)[S-].[Na+]", "note": "[sodium diethyldithiocarbamate]", "Residual activity": 59.3}
{"tested_on": "monomethylamine-oxidizing enzyme", "assay": "not given", "assay_type": "biochemical, Bacillus sp. N - 104 (FERM BP-59)", "conditions": "pH 9", "protocol": "as §2", "units": {"Residual activity": "%"}}
{"smiles": "Oc1cccc2cccnc12", "note": "[8-oxyquinoline]", "Residual activity": 34.0}
{"smiles": "O=C(O)CI", "note": "[monoiodoacetic acid]", "Residual activity": 34.0}
